The text below walks through data of ChEMBL document CHEMBL3243923, “Linked Aryl Aryloxypropanolamines as a new class of lipid catabolis agents” (J Med Chem, 1978).

For data set [1], the system named is Mus musculus. Description: Reduction of plasma insulin level in mouse at 0.01% administered every day through diet for 10 days measured on day 10 by double antibody method relative to control. It counts as functional. The arrangement: scale not given: the % may be the effect or the level left.
Data set [2] has as its system Mus musculus. Description: Antiobesity activity in mouse assessed as reduction in utero fat administered every day through diet for 10 days measured after day 10. It is filed as functional. The settings on record: 240 h.
A short description of data set [3]: (§1) Chronic toxicity in po dosed mouse assessed as mortality administered as qd for 21 days. It counts as organism-based. The following applies: in vivo, read-out: MNTD.
Data set [4] in a line: Therapeutic index, ratio of MNTD for chronic toxicity in po dosed mouse to ED25 for antiobesity activity in mouse assessed as reduction in utero fat. It counts as organism-based. The settings on record: in vivo, read-out: TI.
Data set [5] relates to Mus musculus. Description: Effect on blood glucose level in mouse at 0.01% administered every day through diet for 10 days measured on day 10 by glucose oxidase method. It counts as functional, organism-based.
The subject of data set [6] is Mus musculus. Description: Antiobesity activity in mouse assessed as reduction in utero fat at 0.02% administered every day through diet for 10 days measured after day 10 relative to control. It is filed as functional. Details: scale not given: the % may be the effect or the level left.
Data set [7] deals with Mus musculus. Description: Toxicity in mouse assessed as liver hypertrophy at 1000 mg/kg, po administered for 21 days. It counts as organism-based. The arrangement: dose 1000 mg/kg, route oral. The following applies: in vivo, 504 h.
Data set [8] has as its system Mus musculus. Description: Effect on blood glucose level in mouse at 0.04% administered every day through diet for 10 days measured on day 10 by glucose oxidase method. It counts as functional, organism-based.
Data set [9] has as its system Canis familiaris. Description: Antiobesity activity in Beagle dog assessed as decrease in food intake at 4 mg/kg administered every day through gelatin capsule for 6 weeks measured 9 days post last dose. The arrangement: dose 4 mg/kg. The following applies: Canis lupus familiaris. It counts as functional, organism-based.
Data set [10] has as its system Mus musculus. The description is as §1. It is filed as organism-based. The settings on record: in vivo, 504 h.
In data set [11] the test system is Mus musculus. Description: Antiobesity activity in mouse assessed as reduction in utero fat at 0.005% administered every day through diet for 10 days measured after day 10 relative to control. It is filed as functional. Details: scale not given: the % may be the effect or the level left.
The test system of data set [12] is Mus musculus. Description: Antiobesity activity in mouse assessed as reduction in utero fat at 0.08% administered every day through diet for 10 days measured after day 10 relative to control. It counts as functional. The arrangement: scale not given: the % may be the effect or the level left.
Data set [13] has as its system Mus musculus. Description: Antiobesity activity in mouse assessed as reduction in utero fat at 0.04% administered every day through diet for 10 days measured after day 10 relative to control. It is filed as functional.
Data set [14] has as its system Canis familiaris. Description: Toxicity in Beagle dog assessed as emesis up to 10 mg/kg administered through gelatin capsule for every week for 6 weeks. The settings on record: in vivo, 1008 h. It is filed as organism-based, Canis lupus familiaris. Details: dose 10 mg/kg.
Data set [15] relates to Rattus norvegicus. Description: Antiobesity activity in rat assessed as reduction in body weight at 80 mg/kg administered every day through diet for 5 weeks measured for 5 weeks relative to control. It counts as functional. Details: scale not given: the % may be the effect or the level left.
The test system of data set [16] is Canis familiaris. Description: Antiobesity activity in Beagle dog assessed as decrease in food intake at 4 mg/kg administered every day through gelatin capsule for 6 weeks measured every day 2 hrs post feeding relative to placebo control. Details: scale not given: the % may be the effect or the level left. It is filed as functional, Canis lupus familiaris.
The species named for data set [17] is Rattus norvegicus. Description: Toxicity in rat assessed as estrogenic activity. It counts as organism-based. The following applies: in vivo.
The species named for data set [18] is Rattus norvegicus. Description: Toxicity in rat assessed as lymphopenia. It is filed as organism-based. The settings on record: in vivo.
Data set [19] deals with Rattus norvegicus. Description: Toxicity in rat assessed as decrease in liver weight at 80 mg/kg, po qd administered for 5 days measured on day 6 relative to control. It is filed as organism-based. Details: dose 80 mg/kg, route oral; scale not given: the % may be the effect or the level left. The settings on record: in vivo, 120 h.
Data set [20] relates to Rattus norvegicus. Description: Toxicity in rat assessed as increase in adrenal weight at 80 mg/kg administered every day through diet for 5 weeks measured after 5th week relative to control. The following applies: in vivo, po, 840 h. It is filed as organism-based. The arrangement: dose 80 mg/kg.
Data set [21] relates to Canis familiaris. Description: Toxicity in Beagle dog assessed as emesis up to 150 mg/kg administered through gelatin capsule for every week for 6 weeks. The following applies: in vivo, 1008 h. It counts as organism-based, Canis lupus familiaris. Details: dose 150 mg/kg.
Data set [22] deals with Rattus norvegicus. Description: Antiobesity activity in rat assessed as reduction in food intake at 80 mg/kg administered every day through diet for 5 weeks measured every week for 5 weeks relative to control. The arrangement: scale not given: the % may be the effect or the level left. It is filed as functional.
The subject of data set [23] is Rattus norvegicus. Description: Antiobesity activity in rat assessed as reduction in body weight at 80 mg/kg, po qd administered for 5 days measured on day 6 relative to control. It is filed as functional. Details: scale not given: the % may be the effect or the level left.
Data set [24] concerns Rattus norvegicus. Description: Toxicity in rat assessed as increase in adrenal weight at 80 mg/kg, po qd administered for 5 days measured on day 6 relative to control. It is filed as organism-based. Details: dose 80 mg/kg, route oral. The settings on record: in vivo, 120 h.
Data set [25] relates to Rattus norvegicus. Description: Antiobesity activity in rat assessed as reduction in utero fat at 80 mg/kg administered every day through diet for 5 weeks measured after 5th week relative to control. The arrangement: scale not given: the % may be the effect or the level left. It counts as functional.
Data set [26] concerns Mus musculus. Description: Antiobesity activity in mouse assessed as reduction in utero fat at 0.01% administered every day through diet for 10 days measured after day 10 relative to control. It counts as functional. Details: scale not given: the % may be the effect or the level left.
A further data set deals with Rhesus monkey. Description: Toxicity in monkey assessed as estrogenic activity. It counts as organism-based, Macaca mulatta. The following applies: in vivo.
The subject of data set [27] is Rattus norvegicus. Description: Toxicity in rat assessed as decrease in liver weight at 80 mg/kg administered every day through diet for 5 weeks measured after 5th week relative to control. The settings on record: in vivo, po, 840 h. Details: dose 80 mg/kg; scale not given: the % may be the effect or the level left. It counts as organism-based.
Data set [28] has as its system Mus musculus. Description: Reduction of plasma insulin level in mouse at 0.04% administered every day through diet for 10 days measured on day 10 by double antibody method relative to control. It counts as functional. The arrangement: scale not given: the % may be the effect or the level left.
Data set [29] concerns Rattus norvegicus. Description: Antiobesity activity in rat assessed as reduction in food intake at 80 mg/kg, po qd administered for 5 days measured every day for 5 days relative to control. The arrangement: scale not given: the % may be the effect or the level left. It is filed as functional.
Data set [30] concerns Canis familiaris. Description: Antiobesity activity in Beagle dog assessed as decrease in body weight at 4 mg/kg administered every day through gelatin capsule for 6 weeks measured every week for 6 weeks relative to placebo control. Details: scale not given: the % may be the effect or the level left. It counts as functional, Canis lupus familiaris.

Active and inactive are the calls of the source. The rule behind the calls is not given here. Where only a bound is given, the exact number is not on record here.

As for `CC(C)NCC(O)COc1c(C(C)(C)C)cc(/C=C/c2cccs2)cc1C(C)(C)C` (stereo not given), the Activity in the data set with Mus musculus [1] is 46%; with Mus musculus [6] it was 30%; in the data set with Mus musculus [7], “Non-toxic”. Further, the ED25 with Mus musculus [2] stood at 6 mg/kg. For the same molecule, in data set [3], the MTD at 504 h is less than 25 mg/kg. In addition, the selectivity ratio in [4] was less than 4.1. Also, the outcome with Mus musculus [5] was inactive.

On to `CC(C)NCC(O)COc1c(C(C)(C)C)cc(/C=C/c2ccccc2)cc1C(C)(C)C` (racemic) [listing 1 of 2 here], for which the result in the data set with Mus musculus [8] and in the data set on Canis familiaris [9] was inactive.

`CC(C)NCC(O)COc1c(C(C)(C)C)cc(-c2cccs2)cc1C(C)(C)C.O=C(O)/C=C\C(=O)O` (stereo not given): the Activity result was “Toxic” with Mus musculus [10] and 33% in the data set on Mus musculus [11].

As for `CCNC(C)Cc1cccc(C(F)(F)F)c1` (stereo not given) [FENFLURAMINE], the Activity in the data set with Mus musculus [12] was 20%; in the data set on Canis familiaris [14], “Non-toxic”. Also, in the data set on Mus musculus [13], the outcome was inactive.

For `CC(C)NCC(O)COc1c(C(C)(C)C)cc(/C=C/c2ccccc2)cc1C(C)(C)C` (racemic) [listing 2 of 2 here], the Activity in the data set with Rattus norvegicus [15] was 9%; with Canis familiaris [16], 40%; in the data set listed under Rattus norvegicus [17] it was “Non-toxic”; in the data set listed under Rattus norvegicus [18] it was “Toxic”; in the data set on Rattus norvegicus [19], 9%; in the data set with Rattus norvegicus [20] it was 16%. Besides, the Activity entry with Canis familiaris [21] is given as “Toxic”; in the data set on Rattus norvegicus [22] it was 10%; with Rattus norvegicus [23], 10%; in the data set with Rattus norvegicus [24], 21%; with Rattus norvegicus [25], 35%; with Mus musculus [26], 26%. In addition, the Activity result was “Non-toxic” in the data set with Rhesus monkey; 3.4% in the data set with Rattus norvegicus [27]; 27% with Mus musculus [28]; “Non-toxic” in the data set with Mus musculus [7]; 79% with Rattus norvegicus [29]; 13% in the data set with Canis familiaris [30]. In addition, the ED25 in the data set on Mus musculus [2] worked out at 10 mg/kg. In [3], the MTD at 504 h is 50 mg/kg. The selectivity ratio in [4] is 5.
